Assay results: patent publication US11035008B2, “Biomarkers for cancer” (BERGENBIO ASA, priority 2015, dated 2021)
“Also recorded” adds a separate entry of the source.

Experiments:
pAkt (S473) = assay: pAkt(S473) in AML cell panel, short term treatment, flow cytometry; assay type: cell-based, human; conditions: 1 hour
Method: (§1) Staining of Cells for Flow Cytometry, General Protocol: • Live cells were centrifuged at 300 G for 5 minutes, washed once with PBS and centrifuged again. Cells were then fixed in 4% PFA in PBS for 10 minutes at 37° C., and resuspended in PBS. Unless processed immediately, samples were at this point stored in PBS at 4° C. (up to three weeks) or at −80° C. (for long-term storage). If intracellular epitopes were stained, cells were permebealized in 90% MeOH for 30 minutes on ice. Unless processed immediately, samples were also be stored in 90% MeOH at −20° C. for up to two months. • Further staining procedure (permebealized or non-permebealized cells): • Cells were washed 1× in PBS and blocked in blocking buffer; either PBS+0.5% BSA or PBS+1:1000 Octagam (5 mg/ml) for 15 minutes at room temperature. Thereafter, cells were incubated with primary AB at the indicated dilutions in incubation buffer (IB, PBS+0.5% BSA) for 1 hour at room temperature. Cells were then washed 3× with IB and incubated with secondary AB (conjugated to a fluorescent flurophore) at 1:1000 dilution in IB for 30 minutes at room temperature. Finally, cells were washed 3× in IB and resuspended in PBS. Cells were analyzed immediately, or stored for up to 24 hours at 4° C. before analysis. • Analysis of cells was done on a BD LSR Fortessa or a BD C6 Accuri flow cytometer, and further processing was done using FlowJo v.7.6. • All incubation steps (but not storage) were done on a spinning wheel or gentle shaker.
The diversity of AML cells and their responses was investigated using a panel of AML cell lines and assessing their responses after BGB324-treatment.
When investigating phospho-markers, the cells were starved overnight in the appropriate growth medium containing 0.1% FBS, pre-treated with BGB324 at 0.5 and 1 μM for one hour, and stimulated with 10% FBS for 20 minutes (to induce phosphorylation, with BGB324 present). Cells were then fixed and stained for flow cytometric analyses.

SLFN11 = assay: Microarray analysis of xenograft material, SLFN11 transcript; assay type: in vivo, mice
Description: Slfn11 was included in the biomarker panel following microarray analysis of Mv4-11 and MOLM13 xenograft material after BGB324-treatment.

pErk = pErk in CD33-positive cells, MOLM13 systemic xenograft model, flow cytometry; assay type: in vivo, mice; conditions: 50 mg/kg for 4 days
Method: Material from an in vivo MOLM13 systemic model was also evaluated by flow cytometry. Expression of the previously evaluated biomarkers was examined in cells isolated from bone marrows and spleens of animals with systemic AML disease (MOLM13, inoculated for 7 days prior to treatment) treated with BGB324 at 50 mg/kg for 4 days. The spleens analysed were from the same study that was analysed by microarray, as mentioned above. The bone marrows were from an identical study that was done at a later time point to get more material for flow analyses.
Cells isolated from spleens and bone marrows were assessed for phosphorylation of Erk, PLCγ1 and Akt, and expression of PHGDH and SLFN11. The samples were also co-stained with CD33, and biomarker expression was only evaluated in CD33-positive cells.

pAxl(Y779) = pAxl(Y779) by flow cytometry in MOLM13 cells (Example 2); assay type: cell-based, human
Method: as §1
MOLM13 cells were cultured in starvation medium (RPMI, 0.1% FBS) over night and treated with BGB324 at 3 μM for a total of 40 minutes. […] Cells were co-stained with pAxl(Y779) and tAxl (1H12) antibodies. […] When gating for Axl-expressing cells, we saw that the reduction of pAxl signal was only seen in Axl-positive cells, showing that the pAxl antibody appears to be Axl-specific (see FIG. 3).
pAxl was further assessed pAxl by, in the same experimental conditions, examining for phosphorylation of Akt (see above, and FIG. 2), comparing starvation with non-starved cells, and using MOLM13 wt, shAxl and shLuc (cells were co-stained with antibodies for both pAkt and pAxl). MOLM13shAxl were used as a negative control, to separate between background binding of the antibodies and the “real” pAxl-signal. In cells that were not starved, only a slight inhibition of pAxl after treatment was found (around 20% at 3 μM BGB324 dose).

PHGDH = PHGDH by western blot in MOLM13 cells treated in vitro; assay type: cell-based, human
Method: Western Blot, General Protocol: • For western blot analysis, cells were lysed on ice using NP-40 lysis buffer with protease- and phosphatase inhibitors. Total protein concentration in lysates was measured using a BCA protein assay kit following the manufacturers instructions. 10% NuPAGE® Bis-Tris precast gels were loaded with 30-50 μg of protein in each well diluted in sample buffer and antioxidant. A 1:1 mix of MagicMark™ XP Western Protein Standard (Invitrogen) and SeeBlue® Plus 2 Pre-Stained Standard was used as protein standard. Gels were run at 50V for 20 min, then at 100V for 1 h 30 min. Blotting was done on ice for 1 h 30 min at 100V onto PVDF (pre-activated with MeOH) or nitrocellulose membranes. Membranes were washed in TBS-0.1% Tween-20 (TBS-T), and blocked in TBS-T 5% BSA for at least 1 h at RT. Primary ABs were added at 1:1000 in TBS-T 5% BSA (rabbit-anti-actin AB was added at 1:2000) in TBS-T 5% BSA, and membranes were incubated over night at 4° C. Membranes were then washed 3× in TBS-T, and incubated in HRP-conjugated secondary ABs at 1:5000 dilution in TBS-T 5% milk for 45 min at RT. Membranes were developed for 1 min using ECL-reagents and imaged with chemiluminescence using a Molecular Imager ChemiDoc™ XRS (BioRad). • All incubation- and washing steps were done on a roller.

total Axl = assay: Total Axl by flow cytometry in MOLM13 cells (Example 2); assay type: cell-based, human; conditions: MOLM13 starved, 3 μM, 40 minutes
Method: as §1, with “Cells were then washed 3× with IB and incubated with secondary AB (conjugated to a fluorescent flurophore) at 1:1000 dilution in IB for 30 minutes at room temperature. Finally, cells were washed 3× in IB and resuspended in PBS.” left out, “shaker. […]” for “shaker.”

Nc1nc(Nc2ccc3c(c2)CC[C@@H](N2CCCC2)CC3)nn1-c1cc2c(nn1)-c1ccccc1CCC2 [BGB324, 1-(6,7-dihydro-5H-benzo[6,7]cyclohepta[1,2-c]pyridazin-3-yl)-N3-((7-(S)-pyrrolidin-1-yl)-6,7,8,9-tetrahydro-5H-benzo[7]annulene-2-yl)-1H-1,2,4-triazole-3,5-diamine]
Akt phosphorylation (pAkt (S473); Kasumi, 0.5 and 1 μM): close to no effect
Akt phosphorylation (pAkt (S473); MOLM13, 0.5 and 1 μM, 10% FBS stimulation): inhibits Akt phosphorylation
Akt phosphorylation (pAkt (S473); Mv4-11, 0.5 and 1 μM, not significant at 0.5 μM): inhibits Akt phosphorylation
pAkt (pAkt (S473); OCI-M1, 1 μM): slight and significant inhibition of pAkt
Akt phosphorylation (pAkt (S473); OCI-M1, 0.5 and 1 μM): close to no effect
SLFN11 transcript (microarray) (SLFN11; MOLM13 systemic xenograft model): not significantly reduced
SLFN11 transcript (microarray) (SLFN11; Mv4-11 subcutaneous xenograft, 14 days of treatment): one of the most significantly downregulated transcripts
SLFN11 transcript (microarray) (SLFN11; Mv4-11 xenograft, single dose 100 mg/kg, 24 hours after treatment): significantly downregulated
pErk (pErk; bone marrows): significant reduction
pErk (pErk; spleens): significant reduction
inhibition at 3 µM (pAxl(Y779); Homo sapiens, MOLM-13, MOLM13 not starved (wt, shLuc, shAxl same)): ~20%
inhibition of pAxl (pAxl(Y779); MOLM13 shAxl, pre-starved, 3 μM): approximately 20%
pAxl(Y779) (pAxl(Y779); MOLM13 starved, 3 μM, 40 minutes): slight decrease in pAxl; also recorded: modest reduction of pAxl
total reduction of pAxl (pAxl(Y779); MOLM13 wt and shLuc, pre-starved, 3 μM): 40%
PHGDH by western blot (PHGDH; 2 uM, time-course of 3-7 hours): did not see reduction of PHGDH
PHGDH by western blot (PHGDH; 0.3 and 0.6 uM, three days): did not see reduction of PHGDH
Total Axl expression (total Axl): did not change
